According to patent US20070110815A1, “Micronised azodicarbonamide, and the preparation and use thereof” (priority 2005, published 2007):

Assays:
[1] = Particle size stability of micronised ADA in capsules on storage; format: physicochemical
Protocol: After having manufactured micronised ADA under the conditions of examples 1 and 2, a size distribution of the ADA crystals was obtained, as illustrated on the appended FIG. 2.
Thereafter the active substance was incorporated into capsules which have been stored for 11 months within a refrigerator at 8° C., in order to determine the stability of ADA according to the standards (International Harmonisation Conference: ICH).
The size of the ADA particles has been determined again at this moment as well as after 3 additional months within a stove at 25° C./60% humidity.

[2] = Comparative examination of bioavailability (biurea in blood after force feeding); format: in vivo; conditions: mice, force feeding, 10, 5 and 1.25 mg/kg, 30 minutes after ingestion, suspension in CMC, FIG. 1
Protocol: 54 mice are randomly divided into 9 groups of 6 animals and receive a dose of ADA by force feeding.
The concentration of biurea, the only catabolite of ADA “in vivo” (Concise International Chemical Assessment Document 16; World Health Organisation: Geneva, 1999) in the blood serum (μg/ml) was determined 30 minutes after ingestion by means of a high-pressure liquid chromatography method. This concentration represents a measurement of the bioavailability of ADA in the organism.
Analysis of the plasma samples was carried out by high-pressure liquid chromatography, followed by mass spectrometry, in accordance with the standards of the “Food and Drug (USA) Administration May 2001: Guidance for Industry: Bioanalytical method validation” (lowest quantification limit (LOQ) of 0.20 μg/ml and linear method up to 20 μg/ml).

rats = assay: 28-day oral toxicity in rats; format: in vivo; conditions: daily 900, 150 and 25 mg/kg for 28 days, suspension in carboxymethylcellulose
Protocol: (§1) Tests were carried out on rats to which daily doses of 900, 150 and 25 mg of ADA according to the invention/kg of body weight were administered orally for 28 days. The ADA was in the form of a micronised powder according to the invention in suspension in carboxymethylcellulose. Likewise an identical test was carried out on dogs at daily doses for 28 days of 400, 100 and 25 mg of ADA according to the invention/kg of body weight.

dogs = assay: 28-day oral toxicity in dogs; format: in vivo
Protocol: as §1
On the dogs that received 400 mg/kg/day for 28 days, a histological examination was also carried out with dissection of the kidneys.

healthy male volunteers = assay: Examination of toxicity on human beings (urine examination by flow cytometry); format: in vivo; conditions: capsules, seven days, up to 6 g per day, limit of detection 2 μm
Protocol: “ESB free” gelatine-coated capsules containing a composition as described in example 4 were administered for seven days to healthy male volunteers at a dose ranging up to 6 g per day (single dose of 150 to 6,000 mg and repeated doses of 300 to 2,400 mg).
A urine examination was carried out using flow cytometry (limit of detection 2 μm).

[3] = Particle size analysis by laser diffraction during micronisation; format: physicochemical
Protocol: A thorough fragmentation of dry powder forming each of these batches is carried out, feeding them at a rate of 4 kg/h into a known dry powder disintegration device, for example into a device of the Alpine® 100 AFG Jet Mill model from Hosokawa Micron Group. This device comprises a cylindrical milling chamber with a conical bottom which is made of stainless steel coated with an elastomer. This chamber has a diameter of 100 mm and a volume of 800 cm^3. The particles to disintegrate are introduced into the chamber by an endless screw. Then the particles are projected against each other by compressed air jets from 3 air nozzles having a diameter of 2 mm which run into each other at the same point. The obtained air stream carries then the disintegrated particles at 50 bar towards a turbo-selecting device which is integrated within the milling chamber. In this example this turbo-selecting device has the shape of a squirrel-cage which has adjustable rotational speed of 5000 to 16000 rpm.
This device allows the exit of the particles smaller than a determined size, in this case <5 μm, and repulses into the milling chamber the particles having a greater size. The fine particles (searched size) which leave the milling chamber are collected for example by means of a cyclone.
The sizes of the particles were then analysed. In order to analyse the diameters use was made of a RODOS & RODOS/M dry powder dispersion device (from Sympatec GmbH) and a VIBRI vibratory powder feed tool (from Sympatec GmbH) with a HELOS laser diffraction system (from Sympatec GmbH). The powders analysed were fed at a rate of 35% of the maximum rate. On passing through an air jet, the powder is subjected to shearing forces of around 3.0 bar. Using a vacuum (90-100 mbar) they are then sucked into the path of a HE/NE laser beam. The diffraction of the laser beam by the particles creates a model which is measured and converted by computer into a particle size distribution using software associated with the HELOS system.

[4] = system: reactivity of the respiratory tracts; assay: Reactivity of respiratory tracts in ovalbumin-sensitised rats; format: in vivo; conditions: sensitised Brown Norway rats, force feeding twice a day 125 and 250 mg/kg, day -1 to day 20, all doses of methacholine
Protocol: At day 0, Brown Norway rats (200-250 g) were sensitised by intraperitoneal administration (1 ml/rat) of ovalbumin (1 mg/ml) mixed with aluminium hydroxide (100 mg/ml).
In this experiment, micronised ADA according to the invention is administered to rats by force feeding in the form of a suspension in poloxamer 188. The administration takes place twice a day in doses of 125 and 250 mg/kg, from day −1 up to day 20.

[5] = water and organic solvents; cited from earlier work
[6] = oral administration; cited from earlier work
[7] = End of micronisation, listed as C
[8] = Middle of micronisation, listed as C
[9] = Start of micronisation, listed as C
[10] = End of micronisation, listed as B
[11] = Middle of micronisation, listed as B
[12] = Start of micronisation, listed as B
[13] = Test date Aug. 7, 2005, 3 additional months at 25° C./60% humidity
[14] = Test date Jun. 20, 2004, after manufacture
[15] = Test date May 7, 2005, capsules stored 11 months in refrigerator at 8° C.
[16] = End of micronisation, listed as A
[17] = Middle of micronisation, listed as A
[18] = Start of micronisation, listed as A

## NC(=O)N=NC(N)=O [azodicarbonamide]
[1]; no additive, 11 months 8° C. plus 3 months 25° C./60% humidity, FIG. 3
  Stability of particle size on storage: stability of ADA according to the invention clearly results
[2]
  Bioavailability of ADA in the blood (concentration of biurea): appreciably better than the non-micronised ADA
[2]; listed as ADA according to the invention
  Bioavailability of ADA in the blood (concentration of biurea): even better bioavailability than completely dissolved ADA
rats
  Adverse effect: In neither of the two tests was any adverse effect observed
dogs; 400 mg/kg/day for 28 days
  Biurea crystals in kidneys (histological examination): no biurea crystals were observed
dogs; oral, daily 400, 100 and 25 mg/kg for 28 days
  Adverse effect: In neither of the two tests was any adverse effect observed
Healthy male volunteers
  Kidney stones or cylinders in urine: No kidney stones or cylinders were observed

## NC(=O)N=NC(N)=O [Batch C, azodicarbonamide]
[3]; [7]
  Granulometry of particles during micronisation d10: 0.57 μm
  Granulometry of particles during micronisation d50: 1.58 μm
  Granulometry of particles during micronisation d90: 3.85 μm
[3]; [8]
  Granulometry of particles during micronisation d10: 0.57 μm
  Granulometry of particles during micronisation d50: 1.56 μm
  Granulometry of particles during micronisation d90: 3.69 μm
[3]; [9]
  Granulometry of particles during micronisation d10: 0.56 μm
  Granulometry of particles during micronisation d50: 1.47 μm
  Granulometry of particles during micronisation d90: 3.43 μm

## NC(=O)N=NC(N)=O [ADA, Azodicarbonamide]
[4]
  Inhibition of the increase in reactivity of the respiratory tracts caused by antigen attack: significant inhibition
[5]
  Solubility: not very soluble in water or in the majority of organic solvents

## NC(=O)N=NC(N)=O [ADA as commercially available, azodicarbonamide]
[6]
  Formation of biurea crystals in the urine: the formation of biurea crystals is quickly observed in the urine

## NC(=O)N=NC(N)=O [Batch B, azodicarbonamide]
[3]; [10]
  Granulometry of particles during micronisation d10: 0.59 μm
  Granulometry of particles during micronisation d50: 1.56 μm
  Granulometry of particles during micronisation d90: 3.68 μm
[3]; [11]
  Granulometry of particles during micronisation d10: 0.58 μm
  Granulometry of particles during micronisation d50: 1.59 μm
  Granulometry of particles during micronisation d90: 3.88 μm
[3]; [12]
  Granulometry of particles during micronisation d10: 0.58 μm
  Granulometry of particles during micronisation d50: 1.58 μm
  Granulometry of particles during micronisation d90: 3.71 μm

## NC(=O)N=NC(N)=O [Batch K9K, azodicarbonamide]
[1]; [13]
  Particle sizes D10: 0.74 μm
  Particle sizes D50: 1.93 μm
[1]; [14]
  Particle sizes D10: 0.59 μm
  Particle sizes D50: 1.56 μm
[1]; [15]
  Particle sizes D10: 0.69 μm
  Particle sizes D50: 1.74 μm

## NC(=O)N=NC(N)=O [Batch K9J, azodicarbonamide]
[1]; [13]
  Particle sizes D10: 0.76 μm
  Particle sizes D50: 2.05 μm
[1]; [14]
  Particle sizes D10: 0.56 μm
  Particle sizes D50: 1.51 μm
[1]; [15]
  Particle sizes D10: 0.72 μm
  Particle sizes D50: 1.86 μm

## NC(=O)N=NC(N)=O [Batch A, azodicarbonamide]
[3]; [16]
  Granulometry of particles during micronisation d10: 0.56 μm
  Granulometry of particles during micronisation d50: 1.51 μm
  Granulometry of particles during micronisation d90: 3.50 μm
[3]; [17]
  Granulometry of particles during micronisation d10: 0.56 μm
  Granulometry of particles during micronisation d50: 1.53 μm
  Granulometry of particles during micronisation d90: 3.55 μm
[3]; [18]
  Granulometry of particles during micronisation d10: 0.58 μm
  Granulometry of particles during micronisation d50: 1.61 μm
  Granulometry of particles during micronisation d90: 3.78 μm

## NC(=O)N=NC(N)=O [Batch K9L, azodicarbonamide]
[1]; [13]
  Particle sizes D10: 0.76 μm
  Particle sizes D50: 2.08 μm
[1]; [14]
  Particle sizes D10: 0.57 μm
  Particle sizes D50: 1.58 μm
[1]; [15]
  Particle sizes D10: 0.72 μm
  Particle sizes D50: 1.88 μm
